Experimental data: paper PMC8867149, “Phosphorylated and Phosphonated Low‐Complexity Protein Segments for Biomimetic Mineralization and Repair of Tooth Enamel” (Advanced Science, 2022)
Non-standard residues stand in square brackets, D forms with d. Residues, ends and D or L forms follow the SMILES beside them. pS = N[C@@H](COP(=O)(O)O)C(=O)O

Molecular target: T1, Alkaline phosphatase, calf intestinal (ALP) (Bos taurus, UniProt P19111)
T1 construct: purchased New England BioLabs (printed 'NEW ENGLANK BioLabs Inc.') M0290
Test: Stability of phosphate/phosphonate group in the presence of ALP (HPLC)
Type: in vitro ADME
Details: 10 U mL^−1 ALP (calf intestinal), half an hour; peptide assemblies; HPLC read-out
Procedure: Figure 2 Characterization of LCPSs and their self‐assembly. a) FTIR characterization of different molecular structures among the LCPS peptides with a concentration of 10 mg mL^−1 LCPS assembly solution. b) Negatively stained TEM images showing the self‐assembled structures of LCPS‐OH, LCPS‐OP, and LCPS‐CP at pH 3.0, 5.0, 7.0, and 9.0. c) Zeta potential values of LCPSs at pH 7. The data are the means ± SD (n = 3 repeats per group). d) CD spectra of LCPS‐OH, LCPS‐OP, and LCPS‐CP assembly solutions (10 mg mL^−1) at pH 7. Self‐assembly of e) LCPS‐OP and f) LCPS‐CP after the addition of ALP. g) HPLC charts chromatograms of LCPS solutions with or without the addition of ALP. The LCPSs were incubated with 10 U mL^−1 ALP for half an hour.
The aggregated peptides were mineralized in the neutral condition directly as mentioned above, in the presence of 10 U mL^−1 ALP (calf‐intestinal). After assembling, 10 µL of the peptide assembly solution was diluted with equal volume of ddH2O. Then, 100 µL of the 1.35 × 10^−3 M CaCl2 solution containing 10 U mL^−1 ALP was added into the peptide assembly solution, and the resultant mixed solution was vibrated for 1 h to ensure the binding of calcium ions with the peptide aggregates. Next, 100 µL of the 0.81 × 10^−3 M K2HPO4 solution containing 10 U mL^−1 ALP was added dropwise for about 1 h while vibrating. […]

T1 sequence (P19111 20-533): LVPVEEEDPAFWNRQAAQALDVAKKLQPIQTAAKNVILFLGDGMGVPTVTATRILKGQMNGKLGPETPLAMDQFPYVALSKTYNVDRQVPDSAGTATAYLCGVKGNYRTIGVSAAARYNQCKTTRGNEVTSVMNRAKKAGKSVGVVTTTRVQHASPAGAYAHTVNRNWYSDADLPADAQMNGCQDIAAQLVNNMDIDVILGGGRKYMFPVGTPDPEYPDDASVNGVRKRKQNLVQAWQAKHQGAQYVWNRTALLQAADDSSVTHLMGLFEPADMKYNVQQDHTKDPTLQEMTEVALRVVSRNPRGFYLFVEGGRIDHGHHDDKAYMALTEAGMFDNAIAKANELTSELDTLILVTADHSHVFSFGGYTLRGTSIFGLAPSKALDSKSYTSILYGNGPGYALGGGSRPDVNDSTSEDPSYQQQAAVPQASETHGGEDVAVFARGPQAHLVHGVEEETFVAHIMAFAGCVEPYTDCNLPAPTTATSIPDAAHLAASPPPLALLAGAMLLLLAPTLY

- stability of phosphate/phosphonate group in the presence of ALP: completely hydrolyzed
Structure (SMILES): N[C@@H](CO)C(=O)N[C@@H](Cc1ccc(O)cc1)C(=O)N[C@@H](COP(=O)(O)O)C(=O)NCC(=O)N[C@@H](Cc1ccc(O)cc1)C(=O)N[C@@H](CO)C(=O)O [LCPS‐OP] (H-SY[pS]GYS-OH)
